This note sets out measurements from PubChem BioAssay AID1418 (Emory University Molecular Libraries Screening Center, 2008).

As a reminder, the IC50 is the midpoint of a concentration-inhibition curve.

Active and inactive are the calls of the source. No rule for the calls is given here.

For the assay, the target named is Induced myeloid leukemia cell differentiation protein Mcl-1 (Homo sapiens) (UniProt Q07820). Nature of the assay: blockers of Bid binding to Mcl-1 – biochemical, TR-FRET, dose response (AID 1418). Conditions: Mcl-1/Bid peptide binding, TR-FRET (europium/Dy647), 2 hr. In general terms: TR-FRET usually uses a lanthanide donor and a delayed reading to cut background.
Chain of Induced myeloid leukemia cell differentiation protein Mcl-1 (Homo sapiens) (Q07820 whole entry, looked up): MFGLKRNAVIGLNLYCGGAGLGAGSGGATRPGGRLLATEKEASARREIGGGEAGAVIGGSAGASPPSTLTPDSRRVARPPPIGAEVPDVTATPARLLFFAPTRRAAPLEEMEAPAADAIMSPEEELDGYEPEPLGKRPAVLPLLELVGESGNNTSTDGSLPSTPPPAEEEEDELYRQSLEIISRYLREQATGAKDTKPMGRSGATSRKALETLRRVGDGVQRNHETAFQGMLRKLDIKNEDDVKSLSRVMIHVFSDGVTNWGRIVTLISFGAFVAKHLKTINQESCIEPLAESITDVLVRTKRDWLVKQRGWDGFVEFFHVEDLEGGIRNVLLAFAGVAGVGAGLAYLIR
On to `COc1ccc(NC(=O)c2cc(C3CC3)on2)c(OC)c1`, for which the IC50 is > 54 µM (inactive). As for `Cc1noc2ncnc(SCc3ccc(C(F)(F)F)cc3)c12`, the figure is > 54 µM (inactive); as for `Cc1ccnc(N/C=C(\C#N)c2nc(-c3cccc(Br)c3)cs2)c1`, 0.79 µM; as for `O=C(Cn1c2ccccc2c(=O)c2ccccc21)N/N=C/c1cc([N+](=O)[O-])ccc1N1CCCCC1`, 0.65 µM.

In the case of `CCC(=NC(C)c1ccccc1)c1c(O)[nH]c(=O)[nH]c1=O` (centres undefined), the half-inhibitory concentration (IC50) is 0.45 µM.

Turning to `O=C(N=Nc1c(O)[nH]c2ccc([N+](=O)[O-])cc12)c1cc(-c2ccccc2Cl)nc2ccccc12`, the half-maximal inhibitory concentration (IC50) was 0.81 µM. `O=c1/c(=C\c2cc([N+](=O)[O-])cc([N+](=O)[O-])c2O)sc2nc3ccccc3n12`: the 50% inhibitory concentration (IC50) is 1.07 µM. The figure for `NC(=O)COc1c(-c2ccccc2)oc2ccccc2c1=O` is > 54 µM (inactive). `CCn1c(C)cc(/C=C2/NC(=O)N(CC(=O)Nc3cccc(C)c3)C2=O)c1C`: the half-inhibitory concentration (IC50) was 3.19 µM. For the compound `Cc1ccc(NC(=O)CN2CCc3ccccc3C2)cc1F`, the IC50 is > 54 µM (inactive). As for `COC(=O)CN1C(C)=Nc2ccc(Br)cc2C1c1ccccc1` (centres undefined), the figure is > 54 µM (inactive).

As for `COc1ccc(NC(=O)c2[nH]ncc2[N+](=O)[O-])cc1`, the IC50 was > 54 µM (inactive).

Turning to `O=c1c(CN2CCN(Cc3ccccc3)CC2)coc2ccc(Cl)cc12`, the IC50 was > 54 µM (inactive). The figure for `CCNc1ccc2noc3c2c1C(=O)c1ccccc1-3` is 14.7 µM; for `COc1cc(/C=C2/SC(=S)NC2=O)ccc1OS(=O)(=O)c1ccc(C)cc1` it is 9.94 µM; for `C=CCn1c(SCC(=O)c2[nH]c(C)c(C(=O)OCC)c2C)nc2scc(-c3ccc(OC)c(OC)c3)c2c1=O` it is 0.84 µM. The figure for `O=C(/C=C/c1cccs1)Nc1scc(-c2ccccc2)c1C(=O)O` is 0.54 µM. The figure for `Cc1nc(N)sc1-c1csc(Nc2ncccn2)n1` is 3.3 µM. Take `COc1ccccc1C1C2=C(N=c3s/c(=C/c4cccc(OCC(=O)O)c4)c(=O)n31)c1ccccc1CC2` (centres undefined): the IC50 is 11.2 µM.

Turning to `O=C(Cn1nc(C(=O)O)c2ccccc2c1=O)Nc1ccc2c(c1)C(=O)c1ccccc1C2=O`, the IC50 is 2.93 µM. As for `CNC(=O)C(=O)NCCN1CCN(C(=O)c2ccc([N+](=O)[O-])cc2)CC1`, the figure is > 54 µM (inactive); as for `CN1C(=O)CN=C(c2ccc(Cl)cc2)c2cc(Cl)ccc21`, > 54 µM (inactive). As for `CCc1cc(C(c2ccc(F)cc2)N2CCOCC2)c(NC(=O)c2ccccc2)s1` (centres undefined), the figure is > 54 µM (inactive); as for `O=C(NCc1cccnc1)c1cc2nc(-c3ccc4c(c3)OCO4)cc(C(F)(F)F)n2n1`, > 54 µM (inactive); as for `COC(=O)/C(=N/Nc1ccccc1)N1CCCc2ccccc21`, > 54 µM (inactive). As for `CC(=O)N1CCc2cc(S(=O)(=O)NC(Cc3ccccc3)C(=O)NC3CCCCCC3)ccc21` (centres undefined), the figure is > 54 µM (inactive).

As to `O=C(O)c1ccccc1NS(=O)(=O)c1ccc(NNC(=S)Nc2ccc(OC(F)F)cc2)c([N+](=O)[O-])c1`, the half-maximal inhibitory concentration (IC50) is 0.62 µM.

Consider `CCN(CC)S(=O)(=O)c1ccc(NC(=O)Nc2cccc(C(F)(F)F)c2)cc1`, for which the IC50 is > 54 µM (inactive). As for `CCCC(=O)Nc1ccc2oc(-c3cccnc3)nc2c1`, the figure is > 54 µM (inactive); as for `N=C1/C(=C\c2ccc(-c3cccc(C(=O)O)c3)o2)C(=O)N=C2SC=C(c3ccccc3)N12`, 4.64 µM; as for `COc1ccc(-c2csc(NC(=S)NC(=O)/C=C/c3ccco3)n2)cc1OC`, > 54 µM (inactive). The figure for `CCN(CC)CCNC(=O)/C(=C/c1cn(C)c2ccccc12)NC(=O)c1ccc(OC)c(OC)c1` is > 54 µM (inactive). The figure for `CCOC(=O)c1ccc(NC(=O)Oc2ccccc2)cc1` is > 54 µM (inactive); for `Cc1c(NC(=O)COC(=O)c2cc(-c3ccc(-c4ccccc4)cc3)nc3ccccc23)c(=O)n(-c2ccccc2)n1C` it is 0.58 µM.

As for `Clc1ccc2nc(CN3CCCc4ccccc43)cn2c1`, the IC50 was > 54 µM (inactive). The figure for `COC(=O)c1cc2sc(Cl)cc2n1CC(=O)Nc1cccc(SC)c1` is > 54 µM (inactive); for `Cc1ccc(-c2cn(-c3ccccc3)c(SCC(N)=O)n2)cc1C` it is > 54 µM (inactive); for `O=C(/C=C/Nc1cccc(F)c1)c1ccco1` it is > 54 µM (inactive). As for `Cc1sc(NC(=O)c2sc3nc4c(C)cccc4cc3c2N)c(C#N)c1C`, the figure is 0.95 µM; as for `C=C(C)Cn1c(Sc2nnc(C)s2)nc2c1c(=O)[nH]c(=O)n2C`, > 54 µM (inactive).

`O=C(O)/C=C\C(=O)N1CCc2ccccc21`: the IC50 is > 54 µM (inactive). The figure for `COc1cccc(-c2csc(N3CCN(C(=S)Nc4cccc(Cl)c4)CC3)n2)c1` is > 54 µM (inactive). The figure for `COCC(=O)Nc1ncc(S(=O)(=O)c2ccc([N+](=O)[O-])cc2)s1` is > 54 µM (inactive); for `CC(C)(C)NC(=O)c1sccc1C(=O)O` it is > 54 µM (inactive); for `O=C(CSc1nc2ccccc2c2nc3ccccc3n12)NCc1ccco1` it is 2.5 µM. `O=C1Nc2ccccc2/C1=N/N=C/c1ccc(-c2ccc([N+](=O)[O-])cc2)o1`: the IC50 was 0.59 µM.

For the compound `Cc1nnc(Sc2cc(C(=O)NC3CC3)c3ccccc3n2)s1`, the IC50 was > 54 µM (inactive). The figure for `CCN1CCc2c(OCc3ccc(C(=O)OC)o3)cccc2C1=O` is > 54 µM (inactive); for `CN(NC(=O)COc1ccccc1)c1ccccc1` it is > 54 µM (inactive); for `O=C(O)c1cccc(N/N=C/C2=C(Cl)c3cc(Cl)ccc3SC2)c1` it is 8.44 µM. As for `Cc1cccc(NC(=O)C2C(C(=O)O)C3C=CC2C32CC2)c1C` (centres undefined), the figure is > 54 µM (inactive).

In the case of `Cc1ccc(S(=O)(=O)N2CCOCC2)cc1C(=O)N1C(=O)c2cccc(N)c2C1=O`, the IC50 is > 54 µM (inactive). Consider `O=C1CSC(c2ccncc2)N1Cc1ccccc1` (centres undefined), for which the IC50 was > 54 µM (inactive). As for `O=[N+]([O-])c1ccc(/C=N/NC(=S)Nc2ccc(Cl)cc2Cl)s1`, the figure is 1.48 µM; as for `c1ccc2c(c1)nnn2-c1ncnc2sc3c(c12)CCCC3`, > 54 µM (inactive). Turning to `CCOC(=O)NC(=O)/C(C#N)=C/c1ccc(N(C)C)cc1`, the IC50 is > 54 µM (inactive). As for `O=C(CSCc1ccccc1)NCCCN1CCOCC1`, the figure is > 54 µM (inactive); as for `O=C(N/N=C/C=C/c1ccc([N+](=O)[O-])cc1)c1cccs1`, “inactive”; as for `O=C(N/N=C/c1ccncc1)c1cccc(S(=O)(=O)Nc2ccc(Cl)cc2)c1`, 2.24 µM. The figure for `COc1ccc(CCNC(=O)c2ccc(CNS(=O)(=O)c3ccc(C(C)(C)C)cc3)cc2)cc1OC` is > 54 µM (inactive); for `O=C(Oc1cccc(N2C(=O)C3C4c5ccccc5C(c5ccccc54)C3C2=O)c1)c1ccco1` (centres undefined) it is > 54 µM (inactive).

For `O=C(CSc1nnc(-c2ccncc2)o1)NCc1ccccc1Cl`, the IC50 was > 54 µM (inactive). As for `COc1cccc(/C=N/NC(=O)c2cc3cc([N+](=O)[O-])ccc3s2)c1O`, the figure is 1.58 µM; as for `COc1ccc(C2Nc3ccccc3C(=O)N2O)cc1OC` (centres undefined), > 54 µM (inactive).
